Results as given in PubChem BioAssay AID1918942 (Molecular Pharmacology Branch, DTP, NCI, 2023).

System: 743489-274-T-PDC complex spheroid viability
Experiment: Anticancer human tumor 743489-274-T-PDC patient-derived renal cell carcinoma cell line growth inhibition
Conditions: for IC50: curve of first compound; for viability, T/C: stronger effect = lower value
Source text: Multicellular complex tumor spheroid response to LSD1 Inhibitor Iadademstat in combination with a variety of drugs and investigational agents in selected tumor cell lines
The current study was undertaken to assess response to LSD1 inhibitors in combination with standard-of-care drugs and investigational agents in solid tumor complex spheroid models as well as in the K-562 leukemia. Complex spheroids include a stromal component modeled by human endothelial cells (HUVEC) and fibroblasts modeled by human mesenchymal stem cells (MSCs). The concentration ranges selected for each drug and investigational agent were based upon clinically achievable concentrations if the clinical Cmax of the agent was known.
Compounds. The drugs and investigational agents used in this study are listed on Table 1. All of the agents used, including staurosporine (NSC755774) and gemcitabine (NSC613327), were obtained from the Developmental Therapeutics Program, NCI. FDA-approved anticancer drugs are available from the NCI at http://dtp.nci.nih.gov/branches/dscb/oncology_drugset_explanation.html. Drugs and investigational agents were >95% pure by proton nuclear magnetic resonance (NMR) and liquid chromatography/mass spectrometry (LC/MS). Stock solutions were prepared at 400x in DMSO, stored at -70 degrees C, and diluted in fresh medium prior to their use. The final concentration of DMSO in cell culture wells never exceeded 0.25% (v/v). The FDA-approved anticancer drug set is available from the Developmental Therapeutics Program at https://dtp.cancer.gov/organization/dscb/obtaining/available_plates.htm. All drugs and investigational agents were tested over a range starting from a high concentration at or near the clinical Cmax and decreasing in half-log increments. If the clinical Cmax for an agent had not been determined, the highest concentration tested was 10 microM.
Cell Lines. The patient-derived cancer cell (PDC) lines: 292921-168-R-J2-PDC, K24384-001-R-PDC, and 521955-158-R2-J5-PDC pancreatic carcinomas, 556581-035-R-J1 ovarian carcinoma, 324938-238-R-J1-PDC, 855422-203-R-J1-PDC and 883617-216-R-J1-PDC urothelial bladder carcinomas, 743489-274-T-PDC renal cell carcinoma, 138582-R-J1 Merkel cell tumor, K60290-347-R-J1 and K57222-313-R-J1-PDC glioblastomas, 653999-131-R-J2-PDC, LG0703-F948-PDC, and 349418-098-R-PDC non-small cell lung carcinomas, 885512-296-R-J2-PDC, 171881-019-R-J1-PDC breast carcinomas and 186277-243-T-J2-PDC and 233499-124-R-J2-PDC colon carcinomas were obtained from the NCI Patient-Derived Models Repository (PDMR, https://pdmr.cancer.gov). The established cell lines NCI/ADR-RES (RRID:CVCL_14520 and OVCAR-5 (RRID:CVCL_1628) ovarian carcinomas, 786-O (RRID:CVCL_1051) and A498 (RRID:CVCL_A498) renal cell carcinoma, NCI-H211 (ATCC, cat. CRL-5824; RRID:CVCL_1529), NCI-H196 (ATCC, cat. CRL-5823, RRID:CVCL_1509), SW 1271 (ATCC, cat. CRL-2177, RRID:CVCL_1716) and NCI-H1876 (ATCC, cat. CRL-5902, RRID:CVCL_1503) small cell lung carcinomas, MDA-MB-231 (RRID:CVCL_0062) and MDA-MB-468 (RRID:CVCL_0419)breast carcinomas (10-12). Pooled donor human umbilical vein endothelial cells (HUVEC, Lonza, cat. CC-2519) and human mesenchymal stem cells (hMSC, Lonza, cat. PT-2501) were purchased from Lonza (Walkersville, MD).
Cell Culture. All cells were maintained in an incubator at 37 degrees C and 5% CO2 with 95% humidity. The PDC lines were cultured according to standard operating procedures established by the NCI PDMR (https://pdmr.cancer.gov). Briefly all PDCs were thawed and cultured in Matrigel-coated flasks prepared with a working solution of 1X Ham's F-12 nutrient mix, without supplementation (Invitrogen, Waltham, MA, cat. 11765054), 100 U/mL penicillin-streptomycin (Invitrogen, cat. 15140122), and 2.5% Matrigel (Corning Inc., Corning, NY, cat. 354248) for the first three passages. […]

[1] = second compound 0.1 µM, first compound 0.000316 µM
[2] = second compound 0.1 µM, first compound 0.001 µM
[3] = second compound 0.1 µM, first compound 0.00316 µM
[4] = second compound 0.1 µM, first compound 0.01 µM
[5] = second compound 0.1 µM, first compound 0.0316 µM
[6] = second compound 0.1 µM, first compound 0.1 µM
[7] = second compound 0.316 µM, first compound 0.000316 µM
[8] = second compound 0.316 µM, first compound 0.001 µM
[9] = second compound 0.316 µM, first compound 0.00316 µM
[10] = second compound 0.316 µM, first compound 0.01 µM
[11] = second compound 0.316 µM, first compound 0.0316 µM
[12] = second compound 0.316 µM, first compound 0.1 µM
[13] = second compound 1 µM, first compound 0.000316 µM
[14] = second compound 1 µM, first compound 0.001 µM
[15] = second compound 1 µM, first compound 0.00316 µM
[16] = second compound 1 µM, first compound 0.01 µM
[17] = second compound 1 µM, first compound 0.0316 µM
[18] = second compound 1 µM, first compound 0.1 µM
[19] = second compound 3.16 µM, first compound 0.000316 µM
[20] = second compound 3.16 µM, first compound 0.001 µM
[21] = second compound 3.16 µM, first compound 0.00316 µM
[22] = second compound 3.16 µM, first compound 0.01 µM
[23] = second compound 3.16 µM, first compound 0.0316 µM
[24] = second compound 3.16 µM, first compound 0.1 µM
[25] = second compound 10 µM, first compound 0.000316 µM
[26] = second compound 10 µM, first compound 0.001 µM
[27] = second compound 10 µM, first compound 0.00316 µM
[28] = second compound 10 µM, first compound 0.01 µM
[29] = second compound 10 µM, first compound 0.0316 µM
[30] = second compound 10 µM, first compound 0.1 µM
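Also: spheroids exposed to compounds for 7 days before readout.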
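For viability, T/C in this document: 100% = DMSO vehicle control wells.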

SMILES	IC50 (second compound 0.1 µM) [nM]	IC50 (second compound 0.316 µM) [nM]	IC50 (second compound 1 µM) [nM]	IC50 (second compound 3.16 µM) [nM]	IC50 (second compound 10 µM) [nM]	viability, T/C [1] [%]	viability, T/C [2] [%]	viability, T/C [3] [%]	viability, T/C [4] [%]	viability, T/C [5] [%]	viability, T/C [6] [%]	viability, T/C [7] [%]	viability, T/C [8] [%]	viability, T/C [9] [%]	viability, T/C [10] [%]	viability, T/C [11] [%]	viability, T/C [12] [%]	viability, T/C [13] [%]	viability, T/C [14] [%]	viability, T/C [15] [%]	other results
CC(C)CC(NC(=O)C(Cc1ccccc1)NC(=O)c1cnccn1)B(O)O (stereo not given) + NC1CCC(NC2CC2c2ccccc2)CC1	7.65	7.9	7.38	8.58	8.22	115	100	121	33.7	29.6	30.3	119	109	115	33.4	19.1	26.7	100	108	113	viability, T/C [16]: 36.8%; viability, T/C [17]: 23.7%; viability, T/C [18]: 28.1%; viability, T/C [19]: 122%; viability, T/C [20]: 103%; viability, T/C [21]: 113%; viability, T/C [22]: 40.3%; viability, T/C [23]: 22.3%; viability, T/C [24]: 38.3%; viability, T/C [25]: 117%; viability, T/C [26]: 119%; viability, T/C [27]: 123%; viability, T/C [28]: 35.8%; viability, T/C [29]: 22.1%; viability, T/C [30]: 35.5%
CC(C)CC(NC(=O)C(Cc1ccccc1)NC(=O)c1cnccn1)B(O)O (stereo not given) + NC1CC1c1ccc(-c2cccc(O)c2)cc1	7.45	7.39	7.95	7.95	6.77	122	102	93.9	33.9	32.3	24.2	119	109	111	25.3	30.7	28.5	113	104	102	viability, T/C [16]: 35.9%; viability, T/C [17]: 36.8%; viability, T/C [18]: 19.4%; viability, T/C [19]: 123%; viability, T/C [20]: 136%; viability, T/C [21]: 105%; viability, T/C [22]: 36.5%; viability, T/C [23]: 28.5%; viability, T/C [24]: 20.7%; viability, T/C [25]: 110%; viability, T/C [26]: 118%; viability, T/C [27]: 98.7%; viability, T/C [28]: 25%; viability, T/C [29]: 25.5%; viability, T/C [30]: 14.5%
CC[C@@]1(O)C(=O)OCc2c1cc1n(c2=O)Cc2cc3c(CN(C)C)c(O)ccc3nc2-1 + NC1CCC(NC2CC2c2ccccc2)CC1	> 100	> 100	> 100	> 100	> 100	119	103	116	89.5	75.6	89.9	107	122	114	93.3	96.5	81.1	120	122	90.3	viability, T/C [16]: 95.5%; viability, T/C [17]: 77.8%; viability, T/C [18]: 81.8%; viability, T/C [19]: 120%; viability, T/C [20]: 110%; viability, T/C [21]: 115%; viability, T/C [22]: 78.2%; viability, T/C [23]: 87.3%; viability, T/C [24]: 71.2%; viability, T/C [25]: 120%; viability, T/C [26]: 127%; viability, T/C [27]: 101%; viability, T/C [28]: 104%; viability, T/C [29]: 85.1%; viability, T/C [30]: 78.9%
